This is an account of results in article PMC4557752, “EST-based in silico identification and in vitro test of antimicrobial peptides in Brassica napus” (BMC Genomics, 2015).

One test deals with E. coli ATCC2592. Kind of test: radial diffusion assay against E. coli (G- strain). The settings on record: for G- strain halo diameter: radial diffusion, E. coli ATCC2592 approx 2 x 10^6 cfu/mL in 1 % agarose underlay gel, 3.5 mm holes, 100 μL AMP sample, 37 °C 12 h, diameter of clear zone, performed in triplicate, '-' = no zone. Format: cell-based, Escherichia coli. On the set-up: G- strain halo diameter: unit not given here. The protocol:
(§1) Purified His-EDDIE-AMPs inclusion bodies were refolded by rapid 1:50 dilution in an optimized refolding buffer (500 mM NaCl, 20 mM Tris, 2 mM EDTA, 5 % glycerol, 10 mM DTT, 0.01 % Tween-20, pH 7.5) and incubated at an appropriate temperature without stirring. During refolding, EDDIE restored its correct conformation and self-cleaved at the specific sites, releasing AMPs from the fusion bodies. Renatured protein solution was then clarified by centrifugation at 15,000 x g at 4 °C for 30 min. The insoluble sample was removed by filtering through a 0.45 μm membrane, leaving the AMPs in the supernatant. The supernatants were transferred to a Ni-NTA His-bind column for purification.
(§2) The antimicrobial activities of recombinant AMPs were detected using a radial diffusion assay. E. coli ATCC2592 and M. luteus ACCC11001 were grown on the mid-logarithmic phase and washed. Approximately 2 × 10^6 cfu/mL bacteria were incorporated into a thin (1.2 mm) agarose underlay gel containing 1 % (w/v) agarose. Holes with 3.5 mm diameter were punched into the solidified agarose and were filled with 100 μL of AMP sample. After the plates were incubated at 37 °C for 12 h, the diameter of the clear zone surrounding each well was measured to evaluate the antimicrobial activity. The refolding buffer was used as negative controls. The above assays were performed in triplicate.

Another test concerns M. luteus ACCC11001. Kind of test: radial diffusion assay against M. luteus (G+ strain). It counts as cell-based, Micrococcus luteus. On the set-up: G+ strain halo diameter: unit not given here. The settings on record: for G+ strain halo diameter: radial diffusion, M. luteus ACCC11001 approx 2 x 10^6 cfu/mL in 1 % agarose underlay gel, 3.5 mm holes, 100 μL AMP sample, 37 °C 12 h, diameter of clear zone, performed in triplicate, '-' = no zone. The protocol:
as §1, §2

A further test concerns S. sclerotiorum. In words: antifungal radial diffusion assay on potato plates. It counts as cell-based, Sclerotinia sclerotiorum. To be noted: PDA/potato plates, 200 μL sample beside the fungi, 22 °C 72 h; refolding buffer control. The protocol: as §1
The antifungal activity of the purified products was assayed using an ultra-sensitive radial diffusion method on thin potato plates (200 g potato, 20 g glucose, 15–20 g agar powder, 1 L double-distilled water) seeded with filamentous fungi. Briefly, 9-cm plates were poured with an underlay potato medium, and S. sclerotiorum on a 1-cm diameter potato medium were seeded on the center of the plates, which were then incubated at 22 °C until hypha grew to 2 cm in diameter. Two hundred microliters of the test sample and negative control (refolding buffer) was placed beside the filamentous fungi, and the plates were incubated at 22 °C for 72 h; the size of the clear area around the filamentous fungi was then measured.

For the sequence “ALTCGTVNSNVAPCIGYITQGGPLPGACCTG [Bn27, recombinant B. napus AMP candidate, 31 aa]”, the “G- strain halo diameter” value in the test on E. coli ATCC2592 was 1.756. Besides, the “G+ strain halo diameter” value in the test with M. luteus ACCC11001 stood at 2.044.

“KTCCPTTTARRIFDSCYGPSVPLTFCARISGCHLFPQSTTCPPEFP [Bn18, recombinant B. napus AMP candidate, 46 aa]”: in the test on E. coli ATCC2592, the “G- strain halo diameter” value is reported as 1.978. Also, in the test on M. luteus ACCC11001, the “G+ strain halo diameter” value was 0.107.

Consider “NQCGQFVSGALINTCCCLFKCG [Bn23, recombinant B. napus AMP candidate, 22 aa]”, for which, in the test with E. coli ATCC2592, the “G- strain halo diameter” value was 0.756. Further, in the test on M. luteus ACCC11001, the “G+ strain halo diameter” value is on record as 1.233.

With “VVCDKSYTCPDKSTCCCVSESKGKCDSWGCCPFESATCCENGSSCCP [Bn10, recombinant B. napus AMP candidate, 47 aa]”, the “G- strain halo diameter” value in the test on E. coli ATCC2592 is reported as 1.722. For the same sequence, the “G+ strain halo diameter” value in the test on M. luteus ACCC11001 is 1.2.

As for “NWCGGKCEVRCKDVGMNDRCLKYCGICCKECKC [Bn20, recombinant B. napus AMP candidate, 33 aa]”, the “G- strain halo diameter” value in the test with E. coli ATCC2592 is on record as 1.489. Further, the “G+ strain halo diameter” value in the test with M. luteus ACCC11001 was 1.089.

Consider “AITCGTVTSSLAPCATLSSSGGEMPPPLCGGCAGVKKLNGMAQTTADRQ [Bn7, recombinant B. napus AMP candidate, 49 aa]”, for which the “G- strain halo diameter” value in the test on E. coli ATCC2592 is 1.311.

Regarding “CASGVGCSQYGYCGNGPDYCG [Bn28, recombinant B. napus AMP candidate, 21 aa]”, the “G- strain halo diameter” value in the test with E. coli ATCC2592 was 0.867. Also, the “G+ strain halo diameter” value in the test on M. luteus ACCC11001 is given as 1.089.

For “RCREASRKKVCYRAGGSCCAKCQCVPPGTSGNTASCPCYANLRTHGNKLKCP [Bn4, recombinant B. napus AMP candidate, 52 aa]”, in the test with E. coli ATCC2592, the “G- strain halo diameter” value is given as 2.122. In the test with M. luteus ACCC11001, the “G+ strain halo diameter” value is reported as 2.167.

Turning to “NICCSQYGYCGTTADYCSPDNNCQSNC [Bn15, recombinant B. napus AMP candidate, 27 aa]”, in the test on M. luteus ACCC11001, the “G+ strain halo diameter” value was determined as 0.944.

Regarding “EQCGRQAGGALCPNGLCCSNLAGAAIPNRIANRPVARASVAA [Bn2, recombinant B. napus AMP candidate, 42 aa]”, the “G- strain halo diameter” value with E. coli ATCC2592 is given as 1.189. Besides, in the test on M. luteus ACCC11001, the “G+ strain halo diameter” value was determined as 1.067.

As to “RVCNTQSHHYRGPCWRNHNCAMVCRTEGFSGGDCVGIPRRCYCTKRC [Bn16, recombinant B. napus AMP candidate, 47 aa]”, in the test with M. luteus ACCC11001, the “G+ strain halo diameter” value worked out at 1.322.

As to “GRKAGGPKNKSVSKSIKAGLQFPVGRITRFLKKGRYAQRLGGERREIRLLTKPE [Bn1, recombinant B. napus AMP candidate, 54 aa]”, the “G- strain halo diameter” value in the test on E. coli ATCC2592 is given as 1.256. Moreover, the “G+ strain halo diameter” value in the test on M. luteus ACCC11001 was determined as 1.633.

Regarding “KECEERSRQSRSFSVICKYDYACQNHCINLEKADGGQCNSRSPTAKCICYFQC [Bn8, recombinant B. napus AMP candidate, 53 aa]”, in the test with E. coli ATCC2592, the “G- strain halo diameter” value is recorded as 1.656. In addition, the “G+ strain halo diameter” value in the test on M. luteus ACCC11001 worked out at 2.056.

Regarding “YVCTRVDCSGRCKGRCNKSSRPNLCLRACNSCCFRCNCVPPPGTHGNHHLRPCYASITT [Bn14, recombinant B. napus AMP candidate, 59 aa]”, in the test on E. coli ATCC2592, the “G- strain halo diameter” value stood at 2.589. The “G+ strain halo diameter” value in the test with M. luteus ACCC11001 was determined as 2.489.

For the sequence “PPTQNPSMAPPTQNPYGQPMAPPTQNPYGQPMAPP [Bn19, recombinant B. napus AMP, 35 aa; new member of the proline-rich antimicrobial peptide family, similar to SP-B]”, the “antimicrobial activity to Gram negative strains (in words)” value in the test on E. coli ATCC2592 (radial diffusion assay, E. coli, refolding buffer as negative control) is “highest activities”. The “G- strain halo diameter” value with E. coli ATCC2592 is recorded as 3.011. For the same sequence, in the test with M. luteus ACCC11001 (radial diffusion assay, M. luteus, refolding buffer as negative control), the “antimicrobial activity to Gram positive strains (in words)” value is on record as “highest activities”. In the test with M. luteus ACCC11001, the “G+ strain halo diameter” value is recorded as 3.022.

Consider “GKPSGSEKDKDKKKQPITRSARAGLQFPVGRVHRLLK [Bn5, recombinant B. napus AMP candidate, 37 aa]”, for which the “G- strain halo diameter” value in the test on E. coli ATCC2592 amounted to 1.711. Besides, the “G+ strain halo diameter” value in the test on M. luteus ACCC11001 is 2.2.

Turning to “RTCESRSHRFKGPCVSENNCANVCHT [Bn24, recombinant B. napus AMP candidate, 26 aa]”, the “G+ strain halo diameter” value with M. luteus ACCC11001 is 0.967.

In the case of “EQCGRRRVERCSRMAVLCEFGWCGDTEPYCKQTGCQSQCGG [Bn3, recombinant B. napus AMP candidate, 41 aa]”, the “G- strain halo diameter” value with E. coli ATCC2592 was found to be 1.867. The “G+ strain halo diameter” value with M. luteus ACCC11001 amounted to 1.811.

Regarding “QNCGCAPNLCCSQFGYCGSTDAYRDWLP [Bn25, recombinant B. napus AMP candidate, 28 aa]”, the “G- strain halo diameter” value in the test on E. coli ATCC2592 came out at 1.567. Besides, the “G+ strain halo diameter” value with M. luteus ACCC11001 is on record as 0.367.

Consider “ALTCGTVNSNVARALAILPRGDRCPERAAPAKAN [Bn26, recombinant B. napus AMP candidate, 34 aa]”, for which, in the test with E. coli ATCC2592, the “G- strain halo diameter” value was 1.533. The “G+ strain halo diameter” value in the test with M. luteus ACCC11001 turned out to be 1.489.

Regarding “KTHEEKSKTYRRLCVDETGCNHACIFNEHFAGGHCRHLECFC [Bn17, recombinant B. napus AMP candidate, 42 aa]”, in the test on E. coli ATCC2592, the “G- strain halo diameter” value is 0.467. Further, in the test with M. luteus ACCC11001, the “G+ strain halo diameter” value is 0.178.

Take “RMCETSSQLFNGPCLSTNCANICQNEGFPDGDCKGFRLRCICNRPC [Bn13, recombinant B. napus AMP candidate, 46 aa]”: the “G- strain halo diameter” value with E. coli ATCC2592 is listed as 2.222. For the same sequence, the “G+ strain halo diameter” value in the test with M. luteus ACCC11001 was determined as 1.722.

Regarding “IQCGKFFSCSEINTCCCLFKCGKYYFGWGCCPLEASTCCDDNTSCCP [Bn22, recombinant B. napus AMP candidate]”, in the test with E. coli ATCC2592, the “G- strain halo diameter” value stood at 0.433.

For the sequence “LQFPVGRISRYLKKGRYAIRYGAGAP [Bn30, recombinant B. napus AMP candidate, 26 aa]”, the “G- strain halo diameter” value in the test on E. coli ATCC2592 is 1.289. Moreover, the “G+ strain halo diameter” value in the test on M. luteus ACCC11001 was 1.4. Moreover, the “growth of the filamentous fungal strain S. sclerotiorum (in words)” value with S. sclerotiorum is listed as “grow normally”.

Regarding “AVTCNNVVGDLYPCLSYVMRGGNAPSTNCCNGVRTLNSQAQTTADRQSVCRCIKNA [Bn21, recombinant B. napus AMP candidate, 56 aa]”, the “G- strain halo diameter” value in the test on E. coli ATCC2592 was determined as 1.711. In addition, in the test with M. luteus ACCC11001, the “G+ strain halo diameter” value was 1.867.

As for “CAPNHCCSQFGYCGTNDAHCGAGCKS [Bn29, recombinant B. napus AMP candidate]”, in the test with E. coli ATCC2592, the “G- strain halo diameter” value amounted to 1.7.
